Measured values from US6335443B1, “Chemical synthesis of exochelins” (Keystone Biomedical, Inc., priority 1998, dated 2002).
“And” between values parts separate entries of the source, which are not always exact repeats. Identical values can stand only once.

What was measured:
[1] = Capacity to chelate iron from ferric ammonium citrate solution (reverse-phase HPLC, 450 nm); format: binding; details: for ferri-exochelin eluted from the HPLC column, % of the Exochelin added: absence of ferric ammonium citrate; for capacity to chelate iron (in words): ferric iron in solution; for exochelin eluted from the column in the ferri form: presence of ferric ammonium citrate, 10-fold molar excess of iron
Experimental: A. Capacity to Chelate Iron. To determine if the synthetic desferri-Exochelin 772SM(R) could chelate iron, as does the native form, the Exochelin was dissolved in 0.1% TFA containing ferric ammonium citrate at a 10-fold molar excess of iron to Exochelin. The solution was then loaded on a Bondapak Phenyl 125 Å 10 μm (3.9×300 mm) HPLC column and the Exochelin was subjected to reverse-phase HPLC (High Pressure Liquid Chromatography) on a Rainin (Woburn, Mass.) HPXL system. The Exochelin was eluted with a 0-100% gradient of a buffer consisting of 0.1% TFA and 50% acetonitrile at a flow rate of 1 ml/min. The ferri-exochelins were monitored at 220-nm and 450-nm absorbance. The mass of ferri-exochelin was assayed by measuring the area under the peak at 450-nm and applying a conversion factor derived from assaying known amounts of ferri-exochelin 772SM(R).
A. Capacity to Chelate Iron. The capacity of synthetic Exochelin 772SM(S) to chelate iron from a solution containing a 10-fold molar excess of ferric iron (ferric ammonium citrate) was assayed as described above.

ferri-Exochelin 758SM [2] = assay: Capacity to remove iron from a different Exochelin species (Ferri-Exochelin 758SM); format: binding; details: for % of Calculated Iron-Saturation at Equilibrium 0 h / % of Calculated Iron-Saturation at Equilibrium 1 h / % of Calculated Iron-Saturation at Equilibrium 0 hour / % of Calculated Iron-Saturation at Equilibrium 1 hour: assuming comparable affinities for iron; for % of Calculated Iron-Saturation at Equilibrium 0 hour / % Iron-Saturation 0 hour / % of Calculated Iron-Saturation at Equilibrium 1 hour / % Iron-Saturation 1 hour: Table 2; for affinity for iron (in words): removal of iron from ferri-Exochelin 758SM within 1 h
Experimental: C. Capacity to Remove Iron from a Different Exochelin Species. To assess the affinity of the synthetic desferri-Exochelin 772SM(R) for iron, its capacity to remove iron from a different Exochelin species, ferri-Exochelin 758SM, was evaluated. The capacity of synthetic and native desferri-Exochelin 772SM(R) to remove iron from ferri-Exochelin 758SM was also evaluated and compared. Either native or synthetic desferri-Exochelin 772SM(R) were independently mixed with ferri-Exochelin 758SM. The amount of iron acquired in 1 hour by the desferri-Exochelins was assayed by subjecting the Exochelin to reverse-phase HPLC on a phenyl column, as described above, and the area under the 450 nm absorbance peak was measured. The amount of iron-Exochelin was then calculated using a conversion factor derived from assaying known amounts of ferri-Exochelin 772SM(R).
C. Capacity to Remove Iron from a Different Exochelin Species. To assess the affinity of the synthetic desferri-Exochelin 772SM(S) for iron, its capacity to remove iron from a different exochelin species, ferri-Exochelin 758SM was evaluated. The capacity of synthetic desferri-Exochelin 772SM(S) and native desferri-Exochelin 772SM(R) to remove iron from ferri-Exochelin 758SM was also evaluated and compared. Either synthetic desferri-Exochelin 772SM(S) or native desferri-Exochelin 772SM(R) was mixed with ferri-Exochelin 758SM. The amount of iron acquired by the desferri-exochelins after 1 hour was assayed by subjecting the molecule to reverse-phase HPLC on a phenyl column, as described above, and the area under the 450 nm absorbance peak was measured. The amount of iron-exochelin was then calculated using a conversion factor derived from assaying known amounts of ferri-Exochelin 772SM(R) and ferri-Exochelin 772SM(S).

ferri-Exochelin 758SM [3] = assay: Capacity to remove iron from Ferri-Exochelin 758SM in the same vial (772SM(R) vs 772SM(S)); format: binding; details: Table 3; for % Iron-Saturation 0 hour / % Iron-Saturation 1 hour: 772SM(R), 772SM(S) and 758SM in the same vial; for % of Calculated Iron-Saturation at Equilibrium 0 hour / % of Calculated Iron-Saturation at Equilibrium 1 hour: same vial, assuming comparable affinities
Experimental: To further assess the relative affinities of the stereoisomers desferri-Exochelin 772SM(R) and 772SM(S) for iron, their capacity to remove iron from a different exochelin species in the same vial were compared.
In the experiment,15.6 μg of 1.1% iron-saturated synthetic Exochelin 772SM(R) and 17.4 μg of 1.0% iron-saturated synthetic Exochelin 772SM(S) was mixed with 13.5 μg of 100% iron-saturated native Exochelin 758SM.

[4] = target: T1, 40% iron-saturated human transferrin (Homo sapiens, UniProt P02787); assay: Capacity to remove iron from 40% iron-saturated human transferrin; format: biochemical; details: Fe3+:desferri-Exochelin 10:1, PBS pH 7.4
T1 sequence (P02787 20-698): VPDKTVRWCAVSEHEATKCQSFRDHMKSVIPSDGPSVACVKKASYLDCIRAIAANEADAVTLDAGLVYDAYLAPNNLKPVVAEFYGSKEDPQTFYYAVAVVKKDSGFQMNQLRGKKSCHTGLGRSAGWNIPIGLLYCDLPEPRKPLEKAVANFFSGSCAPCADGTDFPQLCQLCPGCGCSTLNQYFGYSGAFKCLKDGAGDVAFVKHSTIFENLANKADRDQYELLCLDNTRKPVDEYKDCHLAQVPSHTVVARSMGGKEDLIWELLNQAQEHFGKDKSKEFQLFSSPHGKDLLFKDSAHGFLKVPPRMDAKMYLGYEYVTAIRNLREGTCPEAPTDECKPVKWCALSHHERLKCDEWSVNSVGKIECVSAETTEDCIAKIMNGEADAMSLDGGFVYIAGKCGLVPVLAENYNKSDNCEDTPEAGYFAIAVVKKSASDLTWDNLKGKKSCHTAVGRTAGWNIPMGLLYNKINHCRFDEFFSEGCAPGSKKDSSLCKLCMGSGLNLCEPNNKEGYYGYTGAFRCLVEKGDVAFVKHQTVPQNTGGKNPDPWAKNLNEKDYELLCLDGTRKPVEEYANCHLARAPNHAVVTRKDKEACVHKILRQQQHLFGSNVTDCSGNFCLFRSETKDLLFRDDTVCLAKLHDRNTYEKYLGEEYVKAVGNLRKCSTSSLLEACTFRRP
Experimental: (§1) A. 40% Iron-Saturated Human Transferrin. To assess the capacity of the 3 different desferri-Exochelins to remove iron from 40% iron-saturated human transferrin, each of them was incubated for 1, 3, and 24 hours with 40% iron-saturated transferrin such that the ratio of Fe^3+: desferri-Exochelin equaled 10:1. The incubation was carried out in PBS, pH 7.4. Afterwards, the Exochelin and transferrin were separated from each other by centrifugation through a 10,000 dalton cut-off filter. The transferrin (mass 76,000 daltons) was completely excluded by this filter whereas 85% of the Exochelin (mass<1,000) was recovered in the filtrate. To determine the total amount of exochelin recovered, the exochelin in the filtrate was saturated with a 20:1 molar excess of ferric ammonium citrate and subjected to reverse-phase HPLC as described above. To determine the amount of iron-saturated Exochelin in the filtrate at each time point, the filtrate was subjected to reverse-phase HPLC without the addition of iron. The % iron-saturation was calculated as follows: [formula]

[5] = target: human apotransferrin (<0.7% iron-saturated) (Homo sapiens, UniProt P02787); assay: Control incubation with human apotransferrin (<0.7% iron-saturated); format: biochemical; details: apotransferrin 38 mg/ml
human apotransferrin (<0.7% iron-saturated), sequence (P02787 20-698): as above
Experimental: as §1
C. Apotransferrin (<0.7% Iron-Saturated Human Transferrin). As a control, the three desferri-exochelins were incubated for 3 h and 24 h with human apotransferrin (<0.7% iron-saturated) at a concentration of 38 mg/ml, the same concentration of protein as in the study utilizing 92% iron-saturated transferrin in B above. None of the desferri-exochelins acquired appreciable amounts of iron (Table 6).

[6] = target: T1, 40% iron-saturated human transferrin; assay: Capacity to remove iron from 40% iron-saturated human transferrin; format: biochemical
[7] = listed as synthetic desferri-Exochelin 772SM(R)
[8] = listed as synthetic desferri-exochelin 772SM(R)
[9] = mixed with ferri-Exochelin 758SM
[10] = listed as synthetic Exochelin 772SM(R)
[11] = listed as Synthetic Desferri-Exochelin 772SM(R)
[12] = listed as synthetic Exochelin 772SM(S)
[13] = listed as Synthetic Desferri-Exochelin 772SM(S)

COC(=O)CCCCCC(=O)N(O)CCCCC(NC(=O)C1COC(c2ccccc2O)=N1)C(=O)OC(C)CC(=O)NC1CCCCN(O)C1=O [Synthetic 772SM(R), Exochelin 772SM(R)]
ferri-exochelin eluted from the HPLC column, % of the Exochelin added [1, 7]: 1.08% | capacity to chelate iron (in words) [1, 8]: rapidly chelates ferric iron in solution | exochelin eluted from the column in the ferri form [1, 7]: 100% | % of Calculated Iron-Saturation at Equilibrium 0 h (ferri-Exochelin 758SM [2]; Table 1, 0 h, 17.3 µg 772SM(R), Experiment II): 2.0% | % of Calculated Iron-Saturation at Equilibrium 0 h (ferri-Exochelin 758SM [2]; Table 1, 0 h, 26.1 µg 772SM(R), Experiment I): 2.7% | % Iron-Saturation 0 h (ferri-Exochelin 758SM [2]; Table 1, 0 h, mixed with ferri-Exochelin 758SM): 1.1% | % of Calculated Iron-Saturation at Equilibrium 1 h (ferri-Exochelin 758SM [2]; Table 1, 17.3 µg 772SM(R), Experiment II): 90.2% | % of Calculated Iron-Saturation at Equilibrium 1 h (ferri-Exochelin 758SM [2]; Table 1, 26.1 µg 772SM(R), Experiment I): 81.3% | % of Calculated Iron-Saturation at Equilibrium 1 h (ferri-Exochelin 758SM [2]; Table 1, listed as synthetic Exochelin 772SM(R)): 81.3% and 90.2% | % Iron-Saturation 1 h (ferri-Exochelin 758SM [2]; Table 1, mixed with ferri-Exochelin 758SM, 17.3 µg 772SM(R), Experiment II): 48.6% | % Iron-Saturation 1 h (ferri-Exochelin 758SM [2]; Table 1, mixed with ferri-Exochelin 758SM, 26.1 µg 772SM(R), Experiment I): 33.5% | % Iron-Saturation 1 h (ferri-Exochelin 758SM [2]; Table 1, mixed with ferri-Exochelin 758SM, listed as synthetic Exochelin 772SM(R)): 33.5% and 48.6% | % of Calculated Iron-Saturation at Equilibrium 0 hour (ferri-Exochelin 758SM [2]): 2.3% | % Iron-Saturation 0 hour (ferri-Exochelin 758SM [2]; [9]): 1.1% | % of Calculated Iron-Saturation at Equilibrium 1 hour (ferri-Exochelin 758SM [2]): 90.7% | % of Calculated Iron-Saturation at Equilibrium 1 hour (ferri-Exochelin 758SM [2]; [10]): 90.7% | % Iron-Saturation 1 hour (ferri-Exochelin 758SM [2]; [9]): 42.9% | % Iron-Saturation 1 hour (ferri-Exochelin 758SM [2]; mixed with ferri-Exochelin 758SM, listed as synthetic Exochelin 772SM(R)): 42.9% | affinity for iron (in words) (ferri-Exochelin 758SM [2]): very high affinity for iron | % Iron-Saturation 0 hour (ferri-Exochelin 758SM [3]): 1.1% | % of Calculated Iron-Saturation at Equilibrium 0 hour (ferri-Exochelin 758SM [3]): 3.7% | % Iron-Saturation 1 hour (ferri-Exochelin 758SM [3]): 28.2% | % Iron-Saturation 1 hour (ferri-Exochelin 758SM [3]; [10]): 28.2% | % of Calculated Iron-Saturation at Equilibrium 1 hour (ferri-Exochelin 758SM [3]): 94.3% | % of Calculated Iron-Saturation at Equilibrium 1 hour (ferri-Exochelin 758SM [3]; [10]): 94.3% | Iron-Saturation 1 h [4, 11]: 6.8% | Iron-Saturation 3 h [4, 11]: 12.8% | Iron-Saturation 24 h [4, 11]: 39.2% | Iron-Saturation 24 h [4, 8]: 39.2% | Iron-Saturation 0 h [5, 11]: 1.1% | Iron-Saturation 3 h [5, 11]: 5.2% | Iron-Saturation 24 h [5, 11]: 6.9% | Iron-Saturation 0 h ([6]; Fe3+:desferri-Exochelin 10:1, PBS pH 7.4, listed as Synthetic Desferri-Exochelin 772SM(R)): 1.1%

COC(=O)CCCCCC(=O)N(O)CCCCC(NC(=O)C1COC(c2ccccc2O)=N1)C(=O)OC(C)CC(=O)NC1CCCCN(O)C1=O [Synthetic 772SM(S), Exochelin 772SM(S)]
ferri-exochelin eluted from the HPLC column, % of the Exochelin added [1, 12]: 1.03% | capacity to chelate iron (in words) ([1]; listed as synthetic desferri-Exochelin 772SM(S)): rapidly chelates iron in solution | exochelin eluted from the column in the ferri form [1, 12]: fully saturated with iron | % of Calculated Iron-Saturation at Equilibrium 0 hour (ferri-Exochelin 758SM [2]): 2.3% | % Iron-Saturation 0 hour (ferri-Exochelin 758SM [2]; [9]): 1.0% | % of Calculated Iron-Saturation at Equilibrium 1 hour (ferri-Exochelin 758SM [2]): 89.6% | % of Calculated Iron-Saturation at Equilibrium 1 hour (ferri-Exochelin 758SM [2]; [12]): 89.6% | % Iron-Saturation 1 hour (ferri-Exochelin 758SM [2]; [9]): 39.7% | % Iron-Saturation 1 hour (ferri-Exochelin 758SM [2]; mixed with ferri-Exochelin 758SM, listed as synthetic Exochelin 772SM(S)): 39.7% | affinity for iron (in words) (ferri-Exochelin 758SM [2]): very high affinity for iron | % Iron-Saturation 0 hour (ferri-Exochelin 758SM [3]): 1.0% | % of Calculated Iron-Saturation at Equilibrium 0 hour (ferri-Exochelin 758SM [3]): 3.3% | % Iron-Saturation 1 hour (ferri-Exochelin 758SM [3]): 25.9% | % Iron-Saturation 1 hour (ferri-Exochelin 758SM [3]; listed as Exochelin 772SM(S)): 25.9% | % of Calculated Iron-Saturation at Equilibrium 1 hour (ferri-Exochelin 758SM [3]): 86.6% | % of Calculated Iron-Saturation at Equilibrium 1 hour (ferri-Exochelin 758SM [3]; listed as Exochelin 772SM(S)): 86.6% | Iron-Saturation 1 h [4, 13]: 14.2% | Iron-Saturation 3 h [4, 13]: 13.8% | Iron-Saturation 24 h [4, 13]: 35.3% | Iron-Saturation 24 h ([4]; listed as synthetic desferri-exochelin 772SM(S)): 35.3% | Iron-Saturation 0 h [5, 13]: 1.0% | Iron-Saturation 3 h [5, 13]: 5.0% | Iron-Saturation 24 h [5, 13]: 4.1% | Iron-Saturation 0 h ([6]; Fe3+:desferri-Exochelin 10:1, PBS pH 7.4, listed as Synthetic Desferri-Exochelin 772SM(S)): 1.0%
